Results on 13 compounds are retold here after patent publication US5786486A, “Acrylamide derivatives and process for production thereof” (Kyorin Pharmaceutical Co., Ltd., priority 1994, dated 1998).

In brackets after ≈: the same amount, converted by molar mass.

For one data set, the system named is HeLa S3 cells. Kind of data set: HeLa Cell Growth Inhibition Activity (HeLa S3, MTT). As to conditions: Homo sapiens, 72 hours exposure. The format is cell-based. Here is the method:
HeLa Cell Growth Inhibition Activity:
HeLa S3 cells were maintained as a monolayer culture in Eagle's minimal medium (Nissui Seiyaku K. K., Tokyo) containing […] glutamine, 100 μg/mL of kanamycin sulfate, and 10% inactivated fetal calt serum at 37° C. in a carbon dioxide incubator. The cells 1.8×10^3 were inoculated to a 96-well plate, and were exposed to the test compounds from the next day for 72 hours. Then, the viable cell numbers were measured by evaluating the ability to reduce 3-[4,5-dimethylthiazol-2-yl]-2,5-diphenyltetrazolium bromide (MTT) according to the Mosmann's method (Mosmann,T., J. Imunol. Meth., 65, 55-63, 1983).

The subject of the next data set is Colon 26 cells. Kind of data set: Antitumor effect in Colon 26-bearing mice. The format is in vivo, CDF1 female mice. The following applies: for Antitumor activity Colon-26 TGI % (tumor growth inhibition rate): Colon 26-bearing CDF1 mice, single dose via tail vein, tumor weighed one week after; for Chemotherapy index MTD/TGI50: ratio of maximum tolerant dose (mg/kg) to dose giving 50% tumor growth inhibition (mg/kg), colon26-bearing mice. Here is the method:
Antitumor effect in Colon 26-bearing mice:
Colon 26 cells 1×10^6 were transplanted into an axillary region of 8-week old CDF1 female mice (Japan SLC Inc., Hamamatsu) subcutaneously. Six days after the transplantation, when the tumor grew palpable, the compound was administered via the tail vein. One week after the administration, the tumor was removed and weighed. The antitumor activity was represented by tumor growth inhibition rate (TGI %=(1--T/C)×100) derived from the ratio (T/C) of the average tumor weight (T) of the compound-administered group to the average tumor weight (C) of the control group.

For orientation: IC50 means the concentration that inhibits the measured activity by half. Low values mean higher potency, high ones lower potency. `COC(=O)c1c(C(F)(F)F)[nH]c2c(O)cc3c(c12)[C@H](CCl)CN3C(=O)/C=C/c1ccc(/C=C/C(=O)N2C[C@@H](CCl)c3c2cc(O)c2[nH]c(C(F)(F)F)c(C(=O)OC)c32)cc1` [Example 1, (S,S)-3,3'-[3,3'-(1,4-phenylenediacryloyl)]-bis[1-chloromethyl-5-hydroxy-7-trifluoromethyl-1,2,3,6-tetrahydropyrrolo[3,2-e]indole-8-methoxycarbonyl]] came in with an IC50 with HeLa S3 cells of 0.0031 ng/mL (≈ 0.00352 nM). Also, in the data set on Colon 26 cells (7.81 μg/kg), the “Antitumor activity Colon-26 TGI % (tumor growth inhibition rate)” value stood at 92%. The “Chemotherapy index MTD/TGI50” value in the data set with Colon 26 cells is 21.9.
As to `COC(=O)c1c(C(F)(F)F)[nH]c2c(O)cc3c(c12)[C@H](CCl)CN3C(=O)/C=C/c1ccc(/C=C/C(=O)N2C[C@@H](CCl)c3c2cc(O)c2[nH]c(C(F)(F)F)c(C(=O)OC)c32)c2c(OC)ccc(OC)c12` [Example 3, (S,S)-3,3'-[3,3'-(5,8-dimethoxy-1,4-naphthalenediyl)diacryloyl]-bis[1-chloromethyl-5-hydroxy-7-trifluoromethyl-1,2,3,6-tetrahydropyrrolo [3,2-e]indole-8-methoxycarbonyl]], it took 0.00934 ng/mL (≈ 0.00944 nM) to reach half-maximal inhibition in the data set on HeLa S3 cells (IC50).
On to `COC(=O)c1c(C(F)(F)F)[nH]c2c(O)cc3c(c12)[C@H](CCl)CN3C(=O)/C=C/c1ccc(/C=C/C(=O)N2C[C@@H](CCl)c3c2cc(O)c2[nH]c(C(F)(F)F)c(C(=O)OC)c32)c2c1OCCO2` [Example 4, (S,S)-3,3'-[3,3'-(2,3-(ethylenedioxy)-1,4-phenylene)diacryloyl]-bis[1-chloromethyl-5-hydroxy-7-trifluoromethyl-1,2,3,6-tetrahydropyrrolo [3,2-e]indole-8-methoxycarbonyl]], for which the IC50 with HeLa S3 cells was determined as 0.00276 ng/mL (≈ 0.00294 nM). For the same compound, the “Antitumor activity Colon-26 TGI % (tumor growth inhibition rate)” value with Colon 26 cells (0.488 μg/kg) is 91%. Also, in the data set with Colon 26 cells, the “Chemotherapy index MTD/TGI50” value is 9.
As for `COC(=O)c1c(C(F)(F)F)[nH]c2c(O)cc3c(c12)[C@H](CCl)CN3C(=O)/C=C/c1ccc(/C=C/C(=O)N2C[C@@H](CCl)c3c2cc(O)c2[nH]c(C(F)(F)F)c(C(=O)OC)c32)c2c1OCO2` [Example 5, (S,S)-3,3'-[3,3'-(2,3-(methylenedioxy)-1,4-phenylene)diacryloyl]-bis[1-chloromethyl-5-hydroxy-7-trifluoromethyl-1,2,3,6-tetrahydropyrrolo[3,2-e]indole-8-methoxycarbonyl]], the IC50 in the data set with HeLa S3 cells amounted to 0.00595 ng/mL (≈ 0.00644 nM). Further, the “Antitumor activity Colon-26 TGI % (tumor growth inhibition rate)” value in the data set with Colon 26 cells (1.95 μg/kg) is given as 90%.
Take `CCc1c(/C=C/C(=O)N2C[C@@H](CCl)c3c2cc(O)c2[nH]c(C(F)(F)F)c(C(=O)OC)c32)ccc(/C=C/C(=O)N2C[C@@H](CCl)c3c2cc(O)c2[nH]c(C(F)(F)F)c(C(=O)OC)c32)c1CC` [Example 6, (S,S)-3,3'-[3,3'-(2,3-diethyl-1,4-phenylene)diacryloyl]-bis[1-chloromethyl-5-hydroxy-7-trifluoromethyl-1,2,3,6-tetrahydropyrrolo[3,2-e]indole-8-methoxycarbonyl]]: the IC50 in the data set on HeLa S3 cells was determined as 0.0318 ng/mL (≈ 0.034 nM).
In the data set on HeLa S3 cells, `COC(=O)c1c(C(F)(F)F)[nH]c2c(O)cc3c(c12)[C@H](CCl)CN3C(=O)/C=C/c1ccc(/C=C/C(=O)N2C[C@@H](CCl)c3c2cc(O)c2[nH]c(C(F)(F)F)c(C(=O)OC)c32)c(OC)c1OC` [Example 8, (S,S)-3,3'-[3,3 '-(2,3-dimethoxy-1,4-phenylene)diacryloyl]-bis[1-chloromethy 1-5-hydroxy-7-trifluoromethyl-1,2,3,6-tetrahydropyrrolo[3,2-e]indole-8-methoxycarbonyl]] had an IC50 of 0.00158 ng/mL (≈ 0.00168 nM). In addition, the “Antitumor activity Colon-26 TGI % (tumor growth inhibition rate)” value in the data set on Colon 26 cells (0.977 μg/kg) was found to be 89%. Besides, in the data set with Colon 26 cells, the “Chemotherapy index MTD/TGI50” value came out at 4.6.
As for `COC(=O)c1c(C(F)(F)F)[nH]c2c(O)cc3c(c12)[C@H](CCl)CN3C(=O)/C=C/c1ccc(/C=C/C(=O)N2C[C@@H](CCl)c3c2cc(O)c2[nH]c(C(F)(F)F)c(C(=O)OC)c32)c2ccccc12` [Example 10, (S,S)-3,3'-[3,3'-(1,4-naphthalenediyl)diacryloyl]-bis[1-chloromethyl-5-hydroxy-7-trifluoromethyl-1,2,3,6-tetrahydropyrrolo[3,2-e]indole-8-methoxycarbonyl]], in the data set on HeLa S3 cells, the IC50 came to 0.011 ng/mL (≈ 0.0118 nM). The “Antitumor activity Colon-26 TGI % (tumor growth inhibition rate)” value with Colon 26 cells (0.977 μg/kg) was 85%. The “Chemotherapy index MTD/TGI50” value in the data set on Colon 26 cells was found to be 7.4.
For the compound `COC(=O)c1c(C(F)(F)F)[nH]c2c(O)cc3c(c12)[C@H](CCl)CN3C(=O)/C=C/c1ccc(-c2ccc(/C=C/C(=O)N3C[C@@H](CCl)c4c3cc(O)c3[nH]c(C(F)(F)F)c(C(=O)OC)c43)cn2)nc1` [Example 13, (S,S)-3,3'-[3,3'-(2,2'-bipyridyl-5,5'-diyl)diacryloyl]-bis[1-chloromethyl-5-hydroxy-7-trifluoromethyl-1,2,3,6-tetrahydropyrrolo [3,2-e]indole-8-methoxycarbonyl]], 0.0198 ng/mL (≈ 0.0207 nM) corresponded to half-maximal inhibition in the data set with HeLa S3 cells (IC50). Also, the “Antitumor activity Colon-26 TGI % (tumor growth inhibition rate)” value in the data set on Colon 26 cells (3.91 μg/kg) stood at 88%. For the same compound, the “Chemotherapy index MTD/TGI50” value with Colon 26 cells is reported as 3.6.
`COC(=O)c1c(C)[nH]c2c(O)cc3c(c12)[C@H](CCl)CN3C(=O)/C=C/c1ccc(/C=C/C(=O)N2C[C@@H](CCl)c3c2cc(O)c2[nH]c(C)c(C(=O)OC)c32)cc1` [Example 18, (S,S)-3,3'-[3,3'-(1,4-phenylene)diacryloyl]-bis[1-chloromethyl-5-hydroxy-7-methyl-1,2,3,6-tetrahydropyrrolo [3,2-e]indole-8-methoxycarbonyl]] showed an IC50 in the data set with HeLa S3 cells of 0.000459 ng/mL (≈ 0.000595 nM).
Still for that read-out and setting: to `Cc1c[nH]c2c(O)cc3c(c12)[C@H](CCl)CN3C(=O)/C=C/c1ccc(/C=C/C(=O)N2C[C@@H](CCl)c3c2cc(O)c2[nH]cc(C)c32)cc1` [Example 19, (S,S)-3,3'-[3,3'-(1,4-phenylene)diacryloy]-bis[1-chloromethyl-5-hydroxy-8-methyl-1,2,3,6-tetrahydropyrrolo[3,2-e]indole]] belongs 0.0134 ng/mL (≈ 0.0204 nM); to `O=C(/C=C/c1ccc(/C=C/C(=O)N2C[C@@H](CCl)c3c2cc(O)c2[nH]c4ccccc4c32)cc1)N1C[C@@H](CCl)c2c1cc(O)c1[nH]c3ccccc3c21` [Example 20, (S,S)-3,3'-[3,3'-(1,4-phenylene)diacryloyl]-bis[1-chloromethyl-5-hydroxy-1,2-dihydropyrrolo[3,2-a]carbazole]], 0.0716 ng/mL (≈ 0.0984 nM); to `COC(=O)c1c[nH]c2c(O)cc3c(c12)[C@H](CCl)CN3C(=O)/C=C/c1ccc(/C=C/C(=O)N2C[C@@H](CCl)c3c2cc(O)c2[nH]cc(C(=O)OC)c32)cc1` [Example 21, (S,S)-3,3'-[3,3'-(1,4-phenylene)diacryloy]-bis[1-chloromethyl-5-hydroxy-1,2,3,6-tetrahydropyrrolo[3,2-e]indole-8-methoxycarbonyl]], 0.00035 ng/mL (≈ 0.000471 nM).
On to `COC(=O)c1cc2c3c(cc(O)c2[nH]1)N(C(=O)/C=C/c1ccc(/C=C/C(=O)N2C[C@@H](CCl)c4c2cc(O)c2[nH]c(C(=O)OC)cc42)cc1)C[C@H]3CCl` [Example 22, (S,S)-3,3'-[3,3 '-(1,4-phenylene)diacryloy]-bis[1-chloromethyl-5-hydroxy-1,2,3,6-tetrahydropyrrolo[3,2-e]indole-7-methoxycarbonyl]], for which, in the data set with HeLa S3 cells, 0.0227 ng/mL (≈ 0.0305 nM) corresponded to half-maximal inhibition (IC50).
